# Results reported in patent US20150368248A1, “2-SUBSTITUTED-6-BIARYLMETHYLAMINO-9-CYCLOPENTYL-9H-PURINE DERIVATIVES, USE THEREOF AS MEDICAMENTS, AND PHARMACEUTICAL COMPOSITIONS” (UNIVERZITA PALACKEHO V OLOMOUCI, priority 2013, published 2015).
# pIC50: −log10 of the molar value. Like-named read-outs stand apart in the source and are kept apart here.
# Assays:
# [1] = test system: p53-regulated transcription in Arn8 cells; experiment: p53-dependent transcriptional activity, β-galactosidase reporter; format: cell-based; settings: 24 h incubation
# Procedure: Stronger anticancer activity of the compounds is enhanced by its positive impact on stability and activity of the tumour suppressor p53. To measure p53-dependent transcriptional activity, β-galactosidase activity was quantified in the melanoma cell line Arn8, which had been established using stable transfection of cells with a p53-responsive reporter construct pRGCAfoslacZ (Frebung et al., Cancer Res., 52, 1992-6976). Briefly, after 24 h incubation with the inhibitors the Arn8 cells were permeabilized with 0.3% Triton X-100 for 15 min and then 4-methylumbelliferon-β-D-galactopyranoside was added as a substrate to the final concentration of 80 μM. After 1 h the fluorescence of product 4-methylumbelliferon was measured at 355/460 nm (ex/em) with a Fluoroskan Ascent microplate reader (Labsystems). Data in Tab. 8 present that series of 2-substituted-6-biarylmethylamino-9-cyclopentyl-9H-purine derivatives show a dose-dependent activatory effect on p53-regulated transcription, with the maximum impact observed between 100 and 500 nM concentrations for most of prepared compounds (Tab. 8).
# [2] = test system: caspase-3/7 activity in PLC/PRF/5 cell line; experiment: One-step cellular caspase-3/7 activity assay; format: cell-based, human; settings: 24 hours incubation, relative to 0 nM = 1.00
# Procedure: (§1) Measurements of proapoptotic properties of new compounds were based on quantification of enzymatic activities of caspases, concretely caspases-3/7. Activity of cellular caspase-3/7 was measured according to Carrasco et al., 2003, BioTechniques, 34(5): 1064-67. Briefly, Hep3B and PLC/PRF/5 cells were incubated in the densities of 10000 cells/well in a 96-well plate overnight. Next day, the compounds in appropriate concentrations were added and cells were incubated for the 24 hours. After incubation, 3× caspase-3/7 assay buffer (150 mM HEPES pH 7.4, 450 mM NaCl, 150 mM KCl, 30 mM MgCl2, 1.2 mM EGTA, 1.5% Nonidet P40, 0.3% CHAPS, 30% sucrose, 30 mM DTT, 3 mM PMSF) with 150 μM Ac-DEVD-AMC as a substrate (Sigma-Aldrich) was added to the wells and plates were incubated at […]. The caspase-3/7 activity was measured after 6 hours using Fluoroskan Ascent microplate reader (Labsystems) at 346 nm/442 nm (excitation/emission).
# [3] = test system: caspase-3/7 activity in Hep3B cell line; experiment: One-step cellular caspase-3/7 activity assay; format: cell-based, human; settings: 24 hours, 0 nM = 1.00
# Procedure: as §1
# [4] = test system: HCC-1.1 (3sp); experiment: MTT cytotoxicity assay (Example 30); format: cell-based; settings: Homo sapiens, 72 h; MTT, three days after drug addition; read-out: Inhibitory concentration IC50, 3sp
# Procedure: (§2) Cytotoxicity of the compounds is the major property determining their anticancer effect in vivo. One of the parameters used, as the basis for cytotoxicity assays, is the metabolic activity of viable cells.
# (§3) We have been using the following cell lines: HUH-7 and PLC/PRF/5 cell lines were maintained in DMEM supplemented with 10% fetal bovine serum, penicillin (100 U/ml) and streptomycin (100 μg/ml). […] HepG2 cell line was maintained in EMEM supplemented with 10% fetal bovine serum, sodium pyruvate (0.11 g/1), penicillin (100 U/ml) and streptomycin (100 μg/ml). All cell lines were cultivated at 37° C. in 5% CO2. For cytotoxicity assays, 3000 cells (10000 cells in case of HepG2 cell line) were seeded into each well of 96 well plate and the next day tested compounds were added at various concentrations in triplicates. Three days after drug addition MTT stock solution (5 mg/ml) was added into each well and incubated for 4 h. After this incubation period, produced formazan was dissolved by DMSO and final absorbance was measured at 570 nm with Synergy H4 Hybrid Multi-Mode Microplate Reader.
# [5] = test system: Hep3B; experiment: MTT cytotoxicity assay (Example 30); format: cell-based, human; settings: MTT, three days after drug addition, read-out: Inhibitory concentration IC50, Hep3B
# Procedure: as §2, §3
# [6] = test system: HCC-1.2 (3p); experiment: MTT cytotoxicity assay (Example 30); format: cell-based; settings: Homo sapiens, HCC-1.2, 72 h; MTT, three days after drug addition; read-out: Inhibitory concentration IC50, 3p
# Procedure: as §2, §3
# [7] = test system: HUH-7; experiment: MTT cytotoxicity assay (Example 30); format: cell-based; settings: Homo sapiens, Huh-7, 72 h; MTT, three days after drug addition; read-out: Inhibitory concentration IC50, HUH-7
# Procedure: as §2, §3
# [8] = test system: PLC/PRF/5; experiment: MTT cytotoxicity assay (Example 30); format: cell-based; settings: Homo sapiens, PLC-PRF-5, 72 h; MTT, three days after drug addition; read-out: Inhibitory concentration IC50, PLC/PRF/5
# Procedure: as §2, §3
# [9] = test system: HepG2; experiment: MTT cytotoxicity assay (Example 30); format: cell-based; settings: Homo sapiens, HepG2, 72 h; MTT, three days after drug addition; read-out: Inhibitory concentration IC50, HepG2
# Excerpt: Cytotoxicity of the compounds is the major property determining their anticancer effect in vivo. One of the parameters used, as the basis for cytotoxicity assays, is the metabolic activity of viable cells. For example, a microtiter assay, which uses (3-(4,5-Dimethylthiazol-2-yl)-2,5-diphenyltetrazolium bromide (MTT), is widely used to quantitate cell proliferation and cytotoxicity. For instance, this assay is used in drug screening programs and in chemosensitivity testing. Because only metabolically active living cells reduce MTT to correspond purple formazan dye, these assays detect viable cells exclusively. The quantity of reduced MTT corresponds to the number of vital cells in the culture.
# We have been using the following cell lines: HUH-7 and PLC/PRF/5 cell lines were maintained in DMEM supplemented with 10% fetal bovine serum, penicillin (100 U/ml) and streptomycin (100 μg/ml). Unique HCC-1.2 (3p) and HCC-1.1 (3sp) cell lines (Zilj et al., 2009, Future Oncol, 5(8):1169-79) and Hep3B cells were cultivated in RPMI supplemented with 10% fetal bovine serum, penicillin (100 U/ml) and streptomycin (100 μg/ml). HepG2 cell line was maintained in EMEM supplemented with 10% fetal bovine serum, sodium pyruvate (0.11 g/1), penicillin (100 U/ml) and streptomycin (100 μg/ml). All cell lines were cultivated at 37° C. in 5% CO2. For cytotoxicity assays, 3000 cells (10000 cells in case of HepG2 cell line) were seeded into each well of 96 well plate and the next day tested compounds were added at various concentrations in triplicates. Three days after drug addition MTT stock solution (5 mg/ml) was added into each well and incubated for 4 h. After this incubation period, produced formazan was dissolved by DMSO and final absorbance was measured at 570 nm with Synergy H4 Hybrid Multi-Mode Microplate Reader.
# [10] = test system: human umbilical vein endothelial cells (HUVECs); experiment: Migration scratch assay; format: cell-based; set-up: key to Wound area: ++: open; +: partly open; 0: closed; settings: 24 h
# Procedure: Migration assay was performed as described previously (Krystof et al., 2011, Eur J Med Chem.; 46(9):4289-94). Briefly, confluent HUVECs were scratched and immediately treated for 24 h with various doses of compounds. After incubation each well was photographed using a DP Controller system (Olympus) connected to a Olympus BX50 microscope. Migration was expressed as the proportion of pixels of the wound area in the image that were not covered by cells using “in house” software.
# [11] = test system: human umbilical vein endothelial cells (HUVEC); experiment: HUVEC proliferation, Calcein AM; format: cell-based; settings: read-out: Inhibitory concentration for HUVEC cells - IC50
# Procedure: Novel 2-substituted-6-biarylmethylamino-9-cyclopentyl-9H-purine derivatives were tested for their potential anti-angiogenic properties; we analyzed its influence on the proliferation (Tab. 9), migration and tube formation of human umbilical vein endothelial cells (HUVEC). Confluent HUVECs were seeded in 96-well microtiter plates to detect their proliferation for 24 or 72 h using Calcein AM solution (Invitrogen) and a Fluoroskan Ascent microplate reader (Labsystems) as described previously (Krystof et al., 2011, Eur J Med Chem. 2011 September; 46(9):4289-94).
structure (smiles),measurement,setting,value
Clc1nc(NCc2ccc(Br)nc2)c2ncn(C3CCCC3)c2n1,melting point,,178 to 179 °C
"NC1CCC(Nc2nc(NCc3ccc(-c4ccccc4O)cc3)c3ncn(C4CCCC4)c3n2)CC1 (centres unmarked) [BP17, N^2-(4-amino-cyclohexyl)-9-cyclopentyl-N^6-(2′-hydroxy-biphenyl-4-ylmethyl)-9H-purine-2,6-diamine]",Concentration of maximum activation,[1],950 nM
same,Relative caspase-3/7 activity in PLC/PRF/5 cell line,[2]; compound concentration 160 nM,1.08
same,Relative caspase-3/7 activity in PLC/PRF/5 cell line,[2]; compound concentration 320 nM,1.09
same,Relative caspase-3/7 activity in PLC/PRF/5 cell line,[2]; compound concentration 640 nM,0.99
same,Relative caspase-3/7 activity in PLC/PRF/5 cell line,[2]; compound concentration 1280 nM,1.20
same,Relative caspase-3/7 activity in Hep3B cell line,[3]; 200 nM,0.89
same,Relative caspase-3/7 activity in Hep3B cell line,[3]; 400 nM,0.87
same,Relative caspase-3/7 activity in Hep3B cell line,[3]; 800 nM,0.96
same,Relative caspase-3/7 activity in Hep3B cell line,[3]; 1600 nM,0.63
same,melting point,,168 to 170 °C
"Clc1nc(NCc2ccc(-n3cccn3)cc2)c2ncn(C3CCCC3)c2n1 [BP23, (2-chlor-9-cyclopentyl-9H-purine-6-yl)-(4-pyrazol-1-yl-benzyl)-amine]",pIC50,[4],6.33
same,pIC50,"[5]; Homo sapiens, Hep3B, 72 h",6.36
same,melting point,,165 to 167 °C
"Clc1nc(NCc2ccc(-c3cccs3)nc2)c2ncn(C3CCCC3)c2n1 [BP29, (2-chlor-9-cyclopentyl-9H-purine-6-yl)-(6-thiophen-2-yl-pyridin-3-ylmethyl)-amine]",pIC50,[4],6.07
same,pIC50,"[5]; Homo sapiens, Hep3B, 72 h",6.10
same,melting point,,111 to 114 °C
"Clc1nc(NCc2ccc(Br)cc2)c2ncn(C3CCCC3)c2n1 [BP101, (4-bromo-benzyl)-(2-chloro-9-cyclopentyl-9H-purine-6-yl)-amine]",melting point,,152 to 154 °C
"NC1CCC(Nc2nc(NCc3ccc(Br)cc3)c3ncn(C4CCCC4)c3n2)CC1 (centres unmarked) [BP102, N^2-(4-amino-cyclohexyl)-N^6-(4-bromo-benzyl)-9-cyclopentyl-9H-purine-2,6-diamine]",pIC50,[4],6.36
same,pIC50,[6],6.31
same,pIC50,[7],6.41
same,pIC50,[8],6.19
same,pIC50,"[5]; Homo sapiens, Hep3B, 72 h",6.57
same,pIC50,[9],< 6.00
"CC(C)(O)CNc1nc(NCc2ccc(Br)cc2)c2ncn(C3CCCC3)c2n1 [BP114, 1-[6-(4-bromo-benzylamino)-9-cyclopentyl-9H-purine-2-ylamino]-2-methyl-propan-2-ol]",melting point,,108 to 110 °C
"CC(C)(O)CNc1nc(NCc2ccc(-c3ccco3)cc2)c2ncn(C3CCCC3)c2n1 [BP115, 1-[9-Cyclopentyl-6-(4-furan-2-yl-benzylamino)-9H-purine-2-ylamino]-2-methyl-propan-2-ol]",Concentration of maximum activation,[1],870 nM
same,Relative caspase-3/7 activity in PLC/PRF/5 cell line,[2]; compound concentration 160 nM,1.17
same,Relative caspase-3/7 activity in PLC/PRF/5 cell line,[2]; compound concentration 320 nM,1.05
same,Relative caspase-3/7 activity in PLC/PRF/5 cell line,[2]; compound concentration 640 nM,0.88
same,Relative caspase-3/7 activity in PLC/PRF/5 cell line,[2]; compound concentration 1280 nM,0.98
same,Relative caspase-3/7 activity in Hep3B cell line,[3]; 200 nM,0.94
same,Relative caspase-3/7 activity in Hep3B cell line,[3]; 400 nM,1.05
same,Relative caspase-3/7 activity in Hep3B cell line,[3]; 800 nM,1.19
same,Relative caspase-3/7 activity in Hep3B cell line,[3]; 1600 nM,0.81
same,melting point,,121 to 123 °C
"Clc1nc(NCc2ccc(-c3ccco3)nc2)c2ncn(C3CCCC3)c2n1 [BP116, (2-chloro-9-cyclopentyl-9H-purine-6-yl)-(6-furan-2-yl-pyridin-3-ylmethyl)-amine]",pIC50,[4],6.43
same,pIC50,"[5]; Homo sapiens, Hep3B, 72 h",6.53
same,melting point,,119 to 122 °C
"Clc1nc(NCc2ccc(-c3ccco3)cc2)c2ncn(C3CCCC3)c2n1 [BP118, (2-chloro-9-cyclopentyl-9H-purine-6-yl)-(4-furan-2-yl-benzyl)-amine]",melting point,,135 to 137 °C
"CCC(CO)Nc1nc(NCc2ccc(-c3ccccn3)cc2)c2ncn(C(C)C)c2n1 (centres unmarked) [CR8, reference compound]",Wound area,[10]; 100 nM,0
same,Wound area,[10]; 1000 nM,+
same,pIC50,[11]; 24 h,< 4.30
same,pIC50,[11]; 72 h,6.21
same,pIC50,[5],< 5.70
same,Concentration of maximum activation,[1],1600 nM
"Cn1cnc2c(NCc3ccccc3)nc(NCCO)nc21 [olomoucine, reference compound]",Wound area,[10]; 100 nM,0
same,Wound area,[10]; 1000 nM,0
"CC[C@H](CO)Nc1nc(NCc2ccccc2)c2ncn(C(C)C)c2n1 [roscovitine, reference compound]",Wound area,[10]; 100 nM,0
same,Wound area,[10]; 1000 nM,0
same,Concentration of maximum activation,[1],>10000 nM
